One test concerns Botrvtis cinerea. As to conditions: cited from earlier work.
The test system of test [1] is pBg12-GUS-tNOS (β-1.3-glucanase PR-2 type gene promoter). The experiment in a line: β-glucuronidase activity in pBg12-GUS-tNOS Arabidopsis plants upon chemical treatment. Type of test: in vivo.
The test system of test [2] is pPDF1.2-GUS-tNOS reporter gene. Put plainly: β-glucuronidase activity in four-week-old pPDF1.2-GUS-tNOS Arabidopsis plants upon chemical treatment. Type of test: in vivo.
A further test deals with Alterniaria alternata. The conditions noted are these: cited from earlier work.
The test system of test [3] is plant defensin gene expression (PDF1.2). Put plainly: Induction of plant defensins in Arabidopsis leaves upon chemical treatments (RNA gel blot, ELISA). Type of test: in vivo.
Test [4] concerns pPDF1.2-GUS-tNOS transgene. The experiment in a line: β-glucuronidase activity in seedlings of pPDF1.2-GUS-tNOS Arabidopsis lines germinated on jasmonic acid. Type of test: in vivo, Arabidopsis thaliana ecotype C24. The conditions noted are these: 10 μM jasmonic acid. The source says: The β-glucuronidase activity was normalized to the total protein content in each sample, as determined by the method of Bradford (1976) using bovine serum albumin as a […].

Another test has as its system tobacco PR-1 gene. The experiment in a line: RNA gel blot analysis of tobacco PR-1 gene activation. Type of test: in vivo. As to conditions: tobacco plants treated in the same way; not shown.
Test [5] relates to pPDF1.2-GUS-tNOS reporter gene. Put plainly: β-glucuronidase activity in pPDF1.2-GUS-tNOS tobacco plants upon chemical treatment. Type of test: in vivo, tobacco (cv. Xanthi-nc). The conditions noted are these: 8-week-old tobacco, treated leaves 48 h after treatment; SA S mM, MeJA 50 μM, paraquat 25 μgM.
The next test relates to A. brassicicola. Type of test: cell-based, Alternaria brassicicola. As to conditions: FIG. 3D.
Setting [6] is: treated leaves, 48 h, JA 500 μM, MeJA 50 μM, SA 5 mM, INA 1 mg/ml, BTH 300 μM, paraquat 25 μM, ethylene 25 ppm.
The mark [7] stands for this setting: treated leaves, 48 hours, JA 500 μM, MeJA 50 μM, SA 5 mM, INA 1 mg/ml, BTH 300 μM, paraquat 25 μM, ethylene 25 ppm.
The mark [8] stands for this setting: […], SA 5 mM, INA 1 mg/mL, paraquat 25 μM, rose bengal 20 mM, methyl jasmonate 45 μM in 0.1% ethanol, ethylene 20 ppm.

Regarding `CSC(=O)c1cccc2nnsc12` [BTH, 1,2,3-benzothiadiazole-7-carbothioic acid S-methylester], the “protection of tobacco plants against infection by Botrytis cinerea” value in the test on Botrvtis cinerea is “failed to protect”. In addition, the “β-glucuronidase activity in pBg12-GUS-tNOS plants” value in test [1] (setting [6]) is “markedly increased”. For the same molecule, in [2] (setting [7]), the “induction of the pPDF1.2-GUS-tNOS reporter gene (β-glucuronidase activity)” value (from here on “induction”) is “without effect”. In the test with Alterniaria alternata, the “protection of tobacco plants against infection by Alternaria alternata” value was “failed to protect”.

As to `O=C(O)c1cc(Cl)nc(Cl)c1` [INA, 2,6-dichloroisonicotinic acid], in test [1] (setting [6]), the “β-glucuronidase activity in pBg12-GUS-tNOS plants” value was “markedly increased”. The “plant defensin gene expression (RNA blot analysis, ELISA)” value (“plant defensin gene expression” below) in test [3] (setting [8]) is listed as “no induction”. Besides, in test [2] (setting [7]), the “induction” value is on record as “without effect”.

In the case of `C=C` [ethylene], in test [1] (in vivo), the “β-glucuronidase activity in pBg12-GUS-tNOS plants” value was “neither JA, MeJA, ethylene nor paraquat had any effect”. In [3] (in vivo), the PDF1.2 accumulation entry is given as “no induced PDF1.2 accumulation” and the “plant defensin gene expression” value was “significantly increased”. Besides, in [2] (in vivo), the “induction” value was “without effect”; the “β-glucuronidase activity, single and combined treatments (synergy)” value is on record as “did not cause increased”.

`CC/C=C\C[C@H]1C(=O)CC[C@@H]1CC(=O)O` [jasmonic acid]: the “increase of β-glucuronidase activity in jasmonate treated versus untreated seedlings” value in test [4] (all six lines tested) is 9 to 25 fold. Besides, the “β-glucuronidase activity, JA-treated” value is 2895 pmoles 4-methylumbelliferone r in test [4] (transgenic line 3, 10-day-old seedlings); 978 pmoles 4-methylumbelliferone r in [4] (transgenic line 4, 10-day-old seedlings); 2676 pmoles 4-methylumbelliferone r in test [4] (transgenic line 5, 10-day-old seedlings); 2166 pmoles 4-methylumbelliferone r in test [4] (transgenic line 6, 10-day-old seedlings); 203 pmoles 4-methylumbelliferone r in test [4] (transgenic line 7, 10-day-old seedlings); 202 pmoles 4-methylumbelliferone r in test [4] (transgenic line 19, 10-day-old seedlings). Moreover, in [1] (setting [6]), the “β-glucuronidase activity in pBg12-GUS-tNOS plants” value is reported as “neither JA, MeJA, ethylene nor paraquat had any effect”. For the same molecule, the “induction” value in [2] (setting [7]) was “induced”.

As to `CC/C=C\CC1C(=O)CCC1CC(=O)OC` (stereo not drawn) [methyl jasmonate], the “β-glucuronidase activity in pBg12-GUS-tNOS plants” value in test [1] (setting [6]) was “neither JA, MeJA, ethylene nor paraquat had any effect”. Also, the “plant defensin gene expression” value in test [3] (setting [8]) is recorded as “significantly increased”. The PDF1.2 accumulation entry in [3] (sterile plants grown on an agar medium, ethylene alone 25 ppm, results not shown) is “still induced PDF1.2 accumulation”. For the same molecule, in [2] (methyl jasmonate 0.5 μM, ethylene 25 ppm, ethephon 333 μM, FIG. 19), the “β-glucuronidase activity, single and combined treatments (synergy)” value was “did not cause increased”. For the same molecule, the “induction” value in [2] (setting [7]) was “induced”.

With `C[n+]1ccc(-c2cc[n+](C)cc2)cc1` [paraquat], in test [1] (setting [6]), the “β-glucuronidase activity in pBg12-GUS-tNOS plants” value is reported as “neither JA, MeJA, ethylene nor paraquat had any effect”. The “plant defensin gene expression” value in test [3] (setting [8]) was “strongly induced”. For the same molecule, the “induction” value in test [2] (setting [7]) is listed as “induced”.

As for `O=C([O-])c1c(Cl)c(Cl)c(Cl)c(Cl)c1-c1c2cc(I)c(=O)c(I)c-2oc2c(I)c([O-])c(I)cc12.[Na+].[Na+]` [rose bengal], the “plant defensin gene expression” value in [3] (setting [8]) is on record as “strongly induced”.

With `O=C(O)c1ccccc1O` [salicylic acid], in [1] (setting [6]), the “β-glucuronidase activity in pBg12-GUS-tNOS plants” value is “markedly increased”. For the same molecule, the “activation of the tobacco PR-1 gene (RNA gel blot)” value in the test with tobacco PR-1 gene is reported as “induced only by salicylic acid”. Further, in test [5], the “increase in β-glucuronidase activity” value was 2 fold. The “plant defensin gene expression” value in [3] (setting [8]) is given as “no induction”. Moreover, the “induction” value in test [2] (setting [7]) is reported as “without effect”.

For the molecule “Rs-AFP1: a known radish plant defensin (QKLCERPSGTWSGVCGNNNACKNQCINLEKARHGSCNYVFPAHKCICYFPC; UniProt P69241 30-80, looked up)”, in the test with A. brassicicola, the “character of the growth inhibition (hyphal morphology)” value is “hyphal hyperbranching and tip swelling”.

The values above are taken from patent US20020035738A1, “Plant protection method” (priority 1996, published 2002).
